Holding throughout (format): functional
Test [1] has as its system Pyricularia oryzae. The experiment in a line: Antifungal activity against Magnaporthe oryzae infected on compound treated rice seedlings at 500 ppm incubated for 24 hr in moist chamber followed by incubation for 5 days in greenhouse conditions.
Test [2] relates to Pyricularia oryzae. The experiment in a line: Antifungal activity against Magnaporthe oryzae infected on compound treated rice seedlings at 7.8 ppm incubated for 24 hr in moist chamber followed by incubation for 5 days in greenhouse conditions.
In test [3] the test system is Pyricularia oryzae. Briefly: Antifungal activity against Magnaporthe oryzae infected on compound treated rice seedlings at 125 ppm incubated for 24 hr in moist chamber followed by incubation for 5 days in greenhouse conditions.
Test [4] concerns Pyricularia oryzae. Briefly: Antifungal activity against Magnaporthe oryzae infected on compound treated rice seedlings at 31.3 ppm incubated for 24 hr in moist chamber followed by incubation for 5 days in greenhouse conditions.

`CCN(CC)/C(=N\S(=O)(=O)c1ccc(C)cc1)C(C)(C)C` registered an Activity with Pyricularia oryzae [1] of 0%.
For the compound `CCCCC/C(=N/S(=O)(=O)c1ccc(C)cc1)N(CC)CC`, the Activity with Pyricularia oryzae [2] was 30%; with Pyricularia oryzae [1] it was 90%; with Pyricularia oryzae [3] it was 90%; in the test with Pyricularia oryzae [4] it was 70%.
`CCCCCCCC/C(=N/S(=O)(=O)c1ccc(C)cc1)N(CC)CC`: in the test with Pyricularia oryzae [1], the Activity was 70%.
Turning to `CS/C(=N/S(=O)(=O)c1ccc(C)cc1)N(C)C`, in the test with Pyricularia oryzae [1], the Activity was 30%.
Turning to `CCCCCCCCC/C(=N/S(=O)(=O)c1ccc(C)cc1)N(CC)CC`, the Activity in the test on Pyricularia oryzae [1] turned out to be 50%.
Compound `CCCCCC/C(=N/S(=O)(=O)c1ccc(C)cc1)N(CCC)CCC` yielded an Activity with Pyricularia oryzae [1] of 50%.
Consider `Cc1ccc(S(=O)(=O)/N=C(/c2ccc(N(C)C)cc2)N(C)C)cc1`, for which the Activity with Pyricularia oryzae [1] was found to be 0%.
As for `CCN(CC)/C(=N\S(=O)(=O)c1ccc(C)cc1)C1CCCCC1`, the Activity in the test on Pyricularia oryzae [1] worked out at 30%.
For `C/C=C/C(=N/S(=O)(=O)c1ccc(C)cc1)N(C)C`, the Activity in the test on Pyricularia oryzae [1] was 30%.
On the same count and under the same terms, the same measure for `CCCCCC/C(=N/S(=O)(=O)c1ccc(Cl)cc1)N(CC)CC`: 30%; for `CCCCCC/C(=N/S(=O)(=O)c1ccc(C)cc1)N(CCCC)CCCC`: 0%.
Take `COc1ccc(/C(=N/S(=O)(=O)c2ccc(C)cc2)N(C)C)cc1`: in the test with Pyricularia oryzae [1], the Activity was found to be 70%.
On the same count and under the same terms, then `Cc1ccc(S(=O)(=O)/N=C(/CC(C)Br)N(C)C)cc1` (stereo not drawn), with 30%; and `CCN(CC)/C(CC(C)C)=N\S(=O)(=O)c1ccc(C)cc1`, with 0%; and `CCCCCC/C(=N/S(=O)(=O)c1ccc(C)cc1)N1CCCC1`, with 30%.
Compound `CCCC/C(=N/S(=O)(=O)c1ccc(C)cc1)N(CC)CC` registered an Activity in the test with Pyricularia oryzae [1] of 70%.
Compound `Cc1ccc(S(=O)(=O)N=C(N(C)C)N(C)C)cc1` had an Activity with Pyricularia oryzae [1] of 30%.
Same read-out and setting: then `C/C(=N/S(=O)(=O)c1ccc(C)cc1)N(C)C`, with 70%; and `CCCCCCCCCCCCC/C(=N/S(=O)(=O)c1ccc(C)cc1)N(CC)CC`, with 30%.
Still for that read-out and setting: the same measure for `CCOC(=O)/C(=N/S(=O)(=O)c1ccc(C)cc1)N(C)C`: 50%; for `Cc1ccc(S(=O)(=O)/N=C(/c2ccc(Cl)cc2)N(C)C)cc1`: 0%; for `Cc1ccc(S(=O)(=O)/N=C(/C2CCCCC2)N(C)C)cc1`: 50%.
Still for that read-out and setting: the same measure for `CCCCCCCCCCCCCCC/C(=N/S(=O)(=O)c1ccc(C)cc1)N(CC)CC`: 0%.
Consider `CCSC1=NS(=O)(=O)c2ccccc2N1C`, for which the Activity in the test with Pyricularia oryzae [2] is given as 0%; with Pyricularia oryzae [1] it was 90%; with Pyricularia oryzae [3], 70%; with Pyricularia oryzae [4] it was 30%.
`Cc1ccc(/C(=N/S(=O)(=O)c2ccc(C)cc2)N(C)C)cc1`: the Activity in the test on Pyricularia oryzae [1] is on record as 70%.
Still for that read-out and setting: then `CCCCCC/C(=N/S(=O)(=O)c1ccc(C)cc1)N1CCOCC1`, with 30%; and `Cc1ccc(S(=O)(=O)/N=C(/c2ccc(Cl)c(Cl)c2)N(C)C)cc1`, with 50%.
Compound `Cc1ccc(S(=O)(=O)/N=C(/c2ccccc2)N(C)C)cc1` had an Activity in the test with Pyricularia oryzae [1] of 30%.
In the case of `CCCCCCCCCCC/C(=N/S(=O)(=O)c1ccc(C)cc1)N(CC)CC`, the Activity in the test with Pyricularia oryzae [1] came out at 50%.
On the same count and under the same terms, the same measure for `CO/C(=N/S(=O)(=O)c1ccc(C)cc1)N(C)C`: 0%.
In turn, `CCC/C(=N/S(=O)(=O)c1ccc(C)cc1)N(C)C` displayed an Activity in the test with Pyricularia oryzae [1] of 70%.
Take `COC(=O)c1ccccc1/C(=C/S(=O)(=O)c1ccc(C)cc1)N(C)C`: the Activity with Pyricularia oryzae [1] stood at 0%.
Same read-out and setting: then `CCCCCC/C(=N/S(=O)(=O)c1ccc(C)cc1)N(C)C`, with 70%; and `CCCCCCCCCC/C(=N/S(=O)(=O)c1ccc(C)cc1)N(CC)CC`, with 50%; and `CCCCCC/C(=N/S(=O)(=O)c1ccccc1)N(CC)CC`, with 30%.
Take `CCCCCC/C(=N/S(=O)(=O)c1ccccc1Cl)N(CC)CC`: the Activity with Pyricularia oryzae [1] is reported as 0%.
On to `CCCCCCC/C(=N/S(=O)(=O)c1ccc(C)cc1)N(CC)CC`, for which the Activity was determined as 30% in the test on Pyricularia oryzae [2], 90% in the test with Pyricularia oryzae [1], 90% in the test on Pyricularia oryzae [3] and 70% in the test on Pyricularia oryzae [4].
In the case of `CCCCCC/C(=N/S(=O)(=O)c1ccc(C)cc1)N(CC)CC`, the Activity was determined as 50% in the test on Pyricularia oryzae [2], 97% in the test with Pyricularia oryzae [1], 90% with Pyricularia oryzae [3] and 90% in the test on Pyricularia oryzae [4].
`CCCCCC/C(=N/S(=O)(=O)c1ccc(C)cc1)N1CCN(C)CC1` displayed an Activity in the test with Pyricularia oryzae [1] of 30%.
Take `Cc1ccc(S(=O)(=O)/N=C(/c2ccc([N+](=O)[O-])cc2)N(C)C)cc1`: the Activity with Pyricularia oryzae [1] is recorded as 0%.
For the compound `CC(C)OP(=O)(OC(C)C)SCc1ccccc1` [IPROBENFOS], the Activity in the test with Pyricularia oryzae [2] is recorded as 0%; in the test on Pyricularia oryzae [1] it was 70%; with Pyricularia oryzae [3], 50%; with Pyricularia oryzae [4] it was 30%.
`CCCCCC/C(=N/S(=O)(=O)c1ccc(C)cc1)N1CCCCC1` returned an Activity in the test with Pyricularia oryzae [1] of 50%.
On the same count and under the same terms, then `CCN(CC)/C(=N\S(=O)(=O)c1ccc(C)cc1)C(C)C`, with 0%.

The record behind these values is ChEMBL document CHEMBL3044689, “Synthesis and Rice-Blast Control Activity of Sulfonylamidines” (1992).
